Results taken from ChEMBL document CHEMBL1833884, “Discovery of a brain-penetrant S1P₃-sparing direct agonist of the S1P₁ and S1P₅ receptors efficacious at low oral dose” (J Med Chem, 2011).
One block for each molecule: values may come before it. Active and inactive are the calls of the source. The rule behind the calls is not given here.

What was measured:
[1] = Blood clearance in CD rat at 1 mg/kg, iv; type: ADME, organism-based; set-up: dose 1 mg/kg, route intravenous
[2] = molecular target: T1, Sphingosine 1-phosphate receptor 1 (Homo sapiens, UniProt P21453); test: Agonist activity at human S1P1 receptor expressed in CHO-K1 EDG1 cells expressing beta-arrestin 2 after 105 mins by chemi-luminescence assay; type: functional, cell-based
Rattus norvegicus [3] = test: Lymphopenic activity in Lewis rat assessed as reduction in blood lymphocyte counts at 1 mg/kg, po; type: functional; set-up: scale not given: the % may be the effect or the level left
[4] = Chromatographic hydrophobicity index, log D of the compound at pH 7.4; type: physicochemical; conditions: buffer
[5] = Volume of distribution at steady state in CD rat at 1 mg/kg, iv; type: ADME, organism-based; set-up: dose 1 mg/kg, route intravenous; conditions: in vivo, read-out: Vdss
[6] = Half life in CD rat at 1 mg/kg, iv; type: ADME, organism-based; set-up: dose 1 mg/kg, route intravenous; conditions: in vivo
[7] = molecular target: T2, Sphingosine 1-phosphate receptor 3 (Homo sapiens, UniProt Q99500); test: Agonist activity at human S1P3 receptor expressed in RBL cells assessed as [35S]GTPgammaS binding after 3 hrs by radiometric assay; type: functional, cell-based
[8] = Dissociation constant, pKa of the compound; type: physicochemical
[9] = Half life in Beagle dog at 1 mg/kg, iv; type: ADME, organism-based, Canis lupus familiaris; set-up: dose 1 mg/kg, route intravenous; conditions: in vivo
[10] = Intrinsic clearance in dog hepatocytes; type: ADME, cell-based, Canis lupus familiaris, Liver, Hepatocyte
[11] = molecular target: T3, Sphingosine 1-phosphate receptor 5 (Homo sapiens, UniProt Q9H228); test: Agonist activity at human S1P5 receptor expressed in CHO-K1 aequorin cells assessed as calcium accumulation of by luminescence assay in presence of cofactor coelenterazine; type: functional, cell-based
[12] = Solubility of the compound in fed state simulated intestinal fluid; type: physicochemical; conditions: simulated gi fluid
Cytochrome P450 3A4 [13] = molecular target: T4, Cytochrome P450 3A4 (Homo sapiens, UniProt P08684); test: Inhibition of CYP3A4 using vivid green as substrate; type: ADME
Cytochrome P450 2D6 = Cytochrome P450 2D6 (Homo sapiens, UniProt P10635); test: Inhibition of CYP2D6; type: ADME
Hepatocyte [14] = test: Intrinsic clearance in human hepatocytes; type: ADME, cell-based, Liver
Hepatocyte [15] = test: Intrinsic clearance in rat hepatocytes; type: ADME, cell-based, Liver
[16] = Oral bioavailability in Beagle dog at 1 mg/kg; type: ADME, organism-based, Canis lupus familiaris; conditions: in vivo
[17] = Chromatographic hydrophobicity index, log D of the compound at pH 10.5; type: physicochemical; conditions: buffer
[18] = Volume of distribution at steady state in Beagle dog at 1 mg/kg, iv; type: ADME, organism-based, Canis lupus familiaris; set-up: dose 1 mg/kg, route intravenous; conditions: in vivo, read-out: Vdss
[19] = Blood clearance in Beagle dog at 1 mg/kg, iv; type: ADME, organism-based, Canis lupus familiaris; set-up: dose 1 mg/kg, route intravenous
[20] = Ratio of drug level in brain to blood in CD rat at 0.8 mg/kg/hr, iv measured up to 7 hrs; type: ADME, organism-based; set-up: route intravenous
[21] = Chromatographic hydrophobicity index, log D of the compound at pH 2.0; type: physicochemical; conditions: buffer
Cytochrome P450 3A4 [22] = molecular target: T4, Cytochrome P450 3A4; test: Inhibition of CYP3A4 using vivid red as substrate; type: ADME
Hepatocyte [23] = test: Intrinsic clearance in mouse hepatocytes; type: ADME, cell-based, Liver
Rattus norvegicus [24] = test: Lymphopenic activity in Lewis rat assessed as reduction in blood lymphocyte counts at 0.3 mg/kg, po; type: functional, organism-based; set-up: dose 0.3 mg/kg
[25] = Oral bioavailability in CD rat at 3 mg/kg; type: ADME, organism-based; conditions: in vivo
[26] = Oral bioavailability in CD rat at 1 mg/kg; type: ADME, organism-based; conditions: in vivo
[27] = Intrinsic clearance in cynomolgus monkey hepatocytes; type: ADME, cell-based, Macaca fascicularis, Liver, Hepatocyte
hERG (KCNH2) = hERG (KCNH2) (Homo sapiens, UniProt Q12809); test: Inhibition of human ERG at 30 uM
Cytochrome P450 2C19 = Cytochrome P450 2C19 (Homo sapiens, UniProt P33261); test: Inhibition of CYP2C19; type: ADME
[28] = molecular target: Voltage-gated inwardly rectifying potassium channel KCNH2 (Homo sapiens, UniProt Q12809)
Cytochrome P450 2C9 = Cytochrome P450 2C9 (Homo sapiens, UniProt P11712); test: Inhibition of CYP2C9; type: ADME
Rattus norvegicus [29] = test: Metabolic stability of the compound in Lewis rat at 1 mg/kg, po; type: ADME, organism-based; set-up: dose 1 mg/kg, route oral; conditions: in vivo
[30] = Bioavailability in CD rat at 1 mg/kg, […]; type: ADME, organism-based; conditions: in vivo
Plasma = test: Fraction unbound in CD rat plasma; type: ADME, cell-free
[31] = Plasma protein binding in CD rat at 1 mg/kg, iv; type: ADME, organism-based; set-up: dose 1 mg/kg, route intravenous; conditions: read-out: PPB
[32] = molecular target: T5, Sphingosine 1-phosphate receptor 4 (Homo sapiens, UniProt O95977); test: Agonist activity at human S1P4 expressed in CHO-K1 aequorin cells assessed as calcium accumulation of by luminescence assay in presence of cofactor coelenterazine; type: functional, cell-based
T5 sequence (O95977 whole entry): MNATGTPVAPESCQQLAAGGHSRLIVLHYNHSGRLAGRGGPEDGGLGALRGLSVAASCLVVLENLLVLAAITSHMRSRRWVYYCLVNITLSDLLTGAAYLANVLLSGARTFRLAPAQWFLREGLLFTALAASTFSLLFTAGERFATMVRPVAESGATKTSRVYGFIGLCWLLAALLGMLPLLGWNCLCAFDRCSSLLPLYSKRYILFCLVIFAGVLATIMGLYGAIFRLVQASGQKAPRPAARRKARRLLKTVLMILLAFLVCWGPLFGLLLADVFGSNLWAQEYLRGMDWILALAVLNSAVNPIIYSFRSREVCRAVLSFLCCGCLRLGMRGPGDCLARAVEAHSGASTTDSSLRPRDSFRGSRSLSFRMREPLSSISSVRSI

[33] = molecular target: T6, Sphingosine 1-phosphate receptor 4 (Homo sapiens) (UniProt O95977); test: Agonist activity at human S1P4 expressed in CHO-K1 aequorin cells assessed as calcium accumulation of by luminescence assay in presence of cofactor coelenterazine relative to control; type: functional, cell-based
T6 sequence (whole entry): T5 sequence (O95977 whole entry)

[34] = molecular target: T1, Sphingosine 1-phosphate receptor 1; test: Agonist activity at human S1P1 receptor expressed in CHO-K1 EDG1 cells expressing beta-arrestin 2 after 105 mins by chemi-luminescence assay relative to control; type: functional, cell-based
[35] = molecular target: T2, Sphingosine 1-phosphate receptor 3; test: Agonist activity at human S1P3 receptor expressed in RBL cells assessed as [35S]GTPgammaS binding after 3 hrs by radiometric assay relative to control; type: functional, cell-based
[36] = molecular target: T3, Sphingosine 1-phosphate receptor 5; test: Agonist activity at human S1P5 receptor expressed in CHO-K1 aequorin cells assessed as calcium accumulation of by luminescence assay in presence of cofactor coelenterazine relative to control; type: functional, cell-based
[37] = molecular target: T7, Sphingosine 1-phosphate receptor 2 (Homo sapiens, UniProt O95136); test: Agonist activity at human S1P2 receptor expressed in yeast MMY24 assessed as conversion of FDGlu to fluorescein after 24 hrs relative to control; type: functional
[38] = molecular target: T7, Sphingosine 1-phosphate receptor 2; test: Agonist activity at human S1P2 receptor expressed in yeast MMY24 assessed as conversion of FDGlu to fluorescein after 24 hrs; type: functional
[39] = tested on: MDR1 (P-glycoprotein), human; test: Efflux ratio of permeability in dog MDCK2 cells expressing human MDR1; type: ADME, cell-based, Canis lupus familiaris, MDCK-II; conditions: MDCK-MDR1

T2 sequence (Q99500 whole entry): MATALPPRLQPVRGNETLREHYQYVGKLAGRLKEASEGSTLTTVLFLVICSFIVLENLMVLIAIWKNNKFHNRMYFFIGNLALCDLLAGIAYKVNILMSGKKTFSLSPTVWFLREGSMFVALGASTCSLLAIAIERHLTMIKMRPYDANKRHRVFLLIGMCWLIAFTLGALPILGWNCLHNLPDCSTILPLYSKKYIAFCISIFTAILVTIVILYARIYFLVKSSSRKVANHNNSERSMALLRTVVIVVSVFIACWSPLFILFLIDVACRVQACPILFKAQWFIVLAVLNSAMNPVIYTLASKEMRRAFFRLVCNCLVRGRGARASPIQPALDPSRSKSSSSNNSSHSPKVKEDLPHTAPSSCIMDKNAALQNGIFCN
T1 sequence (P21453 whole entry): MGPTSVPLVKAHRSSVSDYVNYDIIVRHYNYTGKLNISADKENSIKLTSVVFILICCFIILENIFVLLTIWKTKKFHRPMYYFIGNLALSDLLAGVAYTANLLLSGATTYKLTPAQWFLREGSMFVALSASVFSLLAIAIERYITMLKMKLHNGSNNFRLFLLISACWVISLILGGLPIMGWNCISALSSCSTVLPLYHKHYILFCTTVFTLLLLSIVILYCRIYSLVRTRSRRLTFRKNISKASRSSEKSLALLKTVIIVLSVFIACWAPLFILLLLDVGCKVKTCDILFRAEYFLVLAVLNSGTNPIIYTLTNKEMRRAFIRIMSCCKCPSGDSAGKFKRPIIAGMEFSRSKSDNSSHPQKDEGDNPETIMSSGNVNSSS
T3 sequence (Q9H228 whole entry): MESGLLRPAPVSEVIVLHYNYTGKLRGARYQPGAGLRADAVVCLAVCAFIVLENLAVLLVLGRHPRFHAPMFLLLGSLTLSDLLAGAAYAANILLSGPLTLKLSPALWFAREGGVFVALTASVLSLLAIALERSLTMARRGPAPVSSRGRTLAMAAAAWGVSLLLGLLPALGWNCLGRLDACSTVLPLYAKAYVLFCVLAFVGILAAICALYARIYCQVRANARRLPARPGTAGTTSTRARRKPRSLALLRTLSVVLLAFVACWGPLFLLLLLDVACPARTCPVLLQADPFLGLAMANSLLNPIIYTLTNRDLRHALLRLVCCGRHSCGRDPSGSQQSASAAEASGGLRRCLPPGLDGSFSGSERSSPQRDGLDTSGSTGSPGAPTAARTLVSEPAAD
Voltage-gated inwardly rectifying potassium channel KCNH2, sequence (Q12809 whole entry): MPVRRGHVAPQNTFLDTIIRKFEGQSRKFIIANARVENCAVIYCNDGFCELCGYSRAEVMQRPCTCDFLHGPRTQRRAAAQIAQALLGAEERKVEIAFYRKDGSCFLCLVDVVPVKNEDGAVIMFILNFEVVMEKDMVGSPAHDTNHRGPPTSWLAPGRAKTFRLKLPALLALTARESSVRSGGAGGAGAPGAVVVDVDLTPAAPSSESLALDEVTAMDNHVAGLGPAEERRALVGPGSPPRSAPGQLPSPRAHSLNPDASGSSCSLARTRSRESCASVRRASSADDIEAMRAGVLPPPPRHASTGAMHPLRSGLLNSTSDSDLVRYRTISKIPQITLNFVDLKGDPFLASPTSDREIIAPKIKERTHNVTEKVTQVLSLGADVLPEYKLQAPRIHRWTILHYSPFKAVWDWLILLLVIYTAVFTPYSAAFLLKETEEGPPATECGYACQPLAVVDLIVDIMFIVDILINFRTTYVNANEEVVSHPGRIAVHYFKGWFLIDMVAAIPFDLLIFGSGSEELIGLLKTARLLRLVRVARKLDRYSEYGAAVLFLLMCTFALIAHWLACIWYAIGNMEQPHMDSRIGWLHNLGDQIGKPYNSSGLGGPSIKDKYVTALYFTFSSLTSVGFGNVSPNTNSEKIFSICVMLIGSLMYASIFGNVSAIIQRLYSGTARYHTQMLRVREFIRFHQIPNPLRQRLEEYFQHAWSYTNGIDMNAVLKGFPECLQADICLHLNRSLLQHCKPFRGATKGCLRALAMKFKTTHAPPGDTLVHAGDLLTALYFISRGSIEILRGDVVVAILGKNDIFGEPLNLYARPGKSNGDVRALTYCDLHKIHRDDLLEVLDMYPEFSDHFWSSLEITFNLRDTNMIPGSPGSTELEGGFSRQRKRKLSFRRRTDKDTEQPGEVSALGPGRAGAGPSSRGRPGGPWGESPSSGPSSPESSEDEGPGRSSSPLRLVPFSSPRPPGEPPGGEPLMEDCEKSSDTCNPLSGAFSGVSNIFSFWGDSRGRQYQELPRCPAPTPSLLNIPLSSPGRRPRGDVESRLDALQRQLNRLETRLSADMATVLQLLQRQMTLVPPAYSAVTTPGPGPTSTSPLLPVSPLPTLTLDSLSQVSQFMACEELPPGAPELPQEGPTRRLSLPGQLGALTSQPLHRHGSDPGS
hERG (KCNH2), sequence (Q12809 whole entry): as above
T7 sequence (O95136 whole entry): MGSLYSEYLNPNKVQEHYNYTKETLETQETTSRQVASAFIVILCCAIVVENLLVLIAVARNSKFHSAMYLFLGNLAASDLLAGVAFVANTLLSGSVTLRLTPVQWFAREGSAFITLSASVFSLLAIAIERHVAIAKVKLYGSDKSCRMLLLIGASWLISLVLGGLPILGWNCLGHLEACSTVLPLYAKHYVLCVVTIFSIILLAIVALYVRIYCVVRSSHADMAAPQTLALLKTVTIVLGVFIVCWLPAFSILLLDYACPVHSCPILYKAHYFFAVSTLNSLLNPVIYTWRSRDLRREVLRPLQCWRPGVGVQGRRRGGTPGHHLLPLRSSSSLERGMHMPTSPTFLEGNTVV
T4 sequence (P08684 whole entry): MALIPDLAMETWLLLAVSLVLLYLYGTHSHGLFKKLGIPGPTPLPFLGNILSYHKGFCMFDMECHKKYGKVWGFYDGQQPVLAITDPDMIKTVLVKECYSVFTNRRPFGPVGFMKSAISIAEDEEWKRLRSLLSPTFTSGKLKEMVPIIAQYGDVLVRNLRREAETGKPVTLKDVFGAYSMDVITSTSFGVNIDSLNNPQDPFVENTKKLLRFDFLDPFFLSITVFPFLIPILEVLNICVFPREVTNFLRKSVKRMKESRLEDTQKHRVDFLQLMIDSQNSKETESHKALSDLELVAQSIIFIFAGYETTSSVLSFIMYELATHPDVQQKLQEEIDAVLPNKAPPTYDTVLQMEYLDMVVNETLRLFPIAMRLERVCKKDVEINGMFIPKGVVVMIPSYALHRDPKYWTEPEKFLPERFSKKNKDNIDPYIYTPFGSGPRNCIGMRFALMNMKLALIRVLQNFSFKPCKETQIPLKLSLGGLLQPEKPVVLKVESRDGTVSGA
Cytochrome P450 2D6, sequence (P10635 whole entry): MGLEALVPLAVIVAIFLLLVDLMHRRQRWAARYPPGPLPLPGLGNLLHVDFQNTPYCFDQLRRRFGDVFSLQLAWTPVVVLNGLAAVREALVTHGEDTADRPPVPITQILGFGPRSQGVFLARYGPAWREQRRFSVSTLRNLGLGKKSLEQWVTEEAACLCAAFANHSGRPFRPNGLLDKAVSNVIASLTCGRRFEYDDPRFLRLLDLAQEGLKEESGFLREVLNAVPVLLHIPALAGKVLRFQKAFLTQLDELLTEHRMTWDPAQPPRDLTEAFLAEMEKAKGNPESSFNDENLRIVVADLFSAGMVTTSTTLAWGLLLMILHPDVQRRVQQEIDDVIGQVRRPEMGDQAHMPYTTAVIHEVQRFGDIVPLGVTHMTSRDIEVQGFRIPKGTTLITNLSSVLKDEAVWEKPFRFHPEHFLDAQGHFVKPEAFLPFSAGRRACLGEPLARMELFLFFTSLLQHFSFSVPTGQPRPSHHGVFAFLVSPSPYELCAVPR

SMILES: CC(C)Oc1ccc(-c2nc(-c3ccc4c(c3)CCN(C(CO)CO)CC4)no2)cc1C#N
bioavailability [30]: 68%
clearance [1]: 21 mL/min/kg
EC50 [2]: 0.02 µM
Activity (Rattus norvegicus [3]): 88%
chromatographic logD [4]: 2.74
Vd [5]: 7.6 L/kg
half-life [6]: 5.3 h
inhibition at 30 µM (hERG (KCNH2)): 59%
EC50 [7]: 15.8 µM
IC50 [28]: 17.8 µM
pKa [8]: 7.81

SMILES: Cc1c(-c2noc(-c3ccc(OC(C)C)c(C#N)c3)n2)cnc2c1CCN(C(CO)CO)C2
clearance [1]: 21 mL/min/kg
EC50 [2]: 0.02 µM
Activity (Rattus norvegicus [3]): 70%
chromatographic logD [4]: 2
Vd [5]: 3.3 L/kg
half-life [6]: 2.1 h
bioavailability [25]: 37%
EC50 [7]: > 100 µM
IC50 [28]: 12.6 µM
pKa [8]: 6.22

SMILES: CC(C)Oc1ncc(-c2nc(-c3ccc4c(c3)CCNCC4)no2)cc1C#N
Fu (Plasma): 0.25%
clearance [1]: 20 mL/min/kg
EC50 [2]: 0.02 µM
fraction unbound [31]: < 0.05
chromatographic logD [17]: 3.73
chromatographic logD [4]: 2.65
chromatographic logD [21]: 1.34
Vd [5]: 9.7 L/kg
half-life [6]: 6.3 h
bioavailability [25]: 70%
EC50 [7]: > 31.6 µM
IC50 [28]: 3.16 µM
pKa [8]: 9.69

SMILES: CCCCCCCCc1ccc(CC[C@](N)(CO)COP(=O)(O)O)cc1 [FTY720-P]
EC50 [32]: 0.2 µM
Emax [33]: 48%
Emax [34]: 99%
Emax [35]: 62%
Emax [36]: 7.2%

Continued by falling EC50 [2], values first:

clearance [1]: 14 mL/min/kg
EC50 [2]: 0.02 µM
chromatographic logD [4]: 2.41
Vd [5]: 3.3 L/kg
half-life [6]: 3.5 h
EC50 [7]: > 31.6 µM
pKa [8]: 6.03
SMILES: CC(C)Oc1ccc(-c2nc(-c3cccc4c3OCCN(C(CO)CO)C4)no2)cc1C#N
Activity (Rattus norvegicus [3]): 60%

clearance [1]: 87 mL/min/kg
EC50 [2]: 0.00794 µM
chromatographic logD [4]: 2.49
Vd [5]: 3.7 L/kg
half-life [6]: 0.6 h
EC50 [7]: 6.31 µM
pKa [8]: 7.28
SMILES: CC(C)Oc1ccc(-c2nc(-c3ccc4c(c3)CCN(C(CO)CO)C4)no2)cc1C#N
Activity (Rattus norvegicus [3]): 49%
IC50 [28]: 20 µM

EC50 [32]: > 41.7 µM
EC50 [11]: 0.162 µM
Emax [33]: 3%
Emax [34]: 94%
EC50 [2]: 0.00562 µM
Emax [35]: 35%
Emax [37]: 1%
EC50 [38]: > 33.1 µM
Emax [36]: 77%
efflux ratio [39]: 6
EC50 [7]: > 31.6 µM
SMILES: Cc1c(-c2noc(-c3ccc(OC(C)C)c(C#N)c3)n2)ccc2c1CCN(CCC(=O)O)C2

half-life [9]: 3 h
CL [10]: 30 mL/min/g
EC50 [11]: 0.02 µM
solubility [12]: > 1 µg/mL
clearance [1]: 60 mL/min/kg
EC50 [2]: 0.00316 µM
IC50 (Cytochrome P450 3A4 [13]): 8.4 µM
IC50 (Cytochrome P450 2D6): > 50 µM
CL (Hepatocyte [14]): 2 mL/min/g
CL (Hepatocyte [15]): 3 mL/min/g
bioavailability [16]: 45%
chromatographic logD [17]: 2.99
Vd [18]: 7 L/kg
chromatographic logD [4]: 2.64
clearance [19]: 29 mL/min/kg
Kp at 7 h [20]: 1.87
chromatographic logD [21]: 0.98
Vd [5]: 4.1 L/kg
IC50 (Cytochrome P450 3A4 [22]): 15.3 µM
CL (Hepatocyte [23]): 1.3 mL/min/g
half-life [6]: 1 h
bioavailability [25]: 52%
bioavailability [26]: 52%
CL [27]: 1.3 mL/min/g
IC50 (Cytochrome P450 2C19): > 50 µM
EC50 [7]: > 31.6 µM
pKa [8]: 7.3
IC50 (Cytochrome P450 2C9): 4.3 µM
SMILES: Cc1c(-c2noc(-c3ccc(OC(C)C)c(C#N)c3)n2)ccc2c1CCN(C(CO)CO)C2
Activity (Rattus norvegicus [3]): 96%
Activity (Rattus norvegicus [24]): Active
inhibition at 30 µM (hERG (KCNH2)): 58%
IC50 [28]: 12.9 µM

clearance [1]: 32 mL/min/kg
EC50 [2]: 0.00126 µM
chromatographic logD [4]: 3.04
Vd [5]: 4.4 L/kg
half-life [6]: 2 h
bioavailability [25]: 38%
EC50 [7]: 25.1 µM
Stability (Rattus norvegicus [29]): Unstable
pKa [8]: 6.07
SMILES: Cc1c(-c2noc(-c3ccc(OC(C)C)c(C#N)c3)n2)ccc2c1CCN(CC(=O)N[C@@H](C)CO)C2
Activity (Rattus norvegicus [3]): 90%
inhibition at 30 µM (hERG (KCNH2)): 43%
IC50 [28]: > 10 µM
